Series [1] is described as follows: FT4 powder rheometer powder characterization (8-parameter model). It counts as physicochemical. Set-up: MPS-15: unit not given here. Particulars: for sBFE (Specific Basic Flow Energy): FT4, Group 1, 25 mm_1C_Split_Rep+VFR_R01; for sBFE (Specific Basic Flow Energy) / SI (Stability Index) / MPS-15 (major Principal Stress @ 15 kPa) / FF-15 (Flow function @ 15 kPa) / CBD-15 (Consolidated Bulk Density @ 15 kPa) / CPS (Compressibility) / WFA (Wall Friction Angle): reference powders; for SI (Stability Index) / SI / sBFE: FT4, Group 1; for SI (Stability Index) / FF-15 (Flow function @ 15 kPa): dimensionless; for MPS-15 (major Principal Stress @ 15 kPa): FT4, Group 2, 25 mm_Shear_15 kPa; for FF-15 (Flow function @ 15 kPa) / CBD-15 (Consolidated Bulk Density @ 15 kPa): FT4, Group 2, shear cell; for CPS (Compressibility): FT4, Group 3, 25 mm_Compressibility_1-15 kPa; for WFA (Wall Friction Angle): FT4, Group 4, 25 mm_Wall Friction_30 kPa; for SI / sBFE / CBD-15 / FF-15 / MPS-15 / CPS / WFA: HDM201-BBA batches; for CBD-15 / FF-15 / MPS-15: FT4, Group 2; for CPS: FT4, Group 3; for WFA: FT4, Group 4. As to the method: A standard FT4 powder rheometer offers at least 6 powder characterization methods (per measurement cylinder diameter). Those selected for analysis are
25 mm_1C_Split_Rep+VFR_R01;
25 mm_Compressibility_1-15 kPa;
25 mm_Wall Friction_30 kPa.
Each characterization method produces several kind of response parameters (default or manually selectable). A set of complete powder characterizations (at least 22 response parameters per row) were measured for more than 350 different powders and more than 60 different compounds using a standard FT4 powder rheometer and compiled in a database. The various parameters were correlated to the respective filling behavior in order to determine a set of parameters and parameter ranges which is capable of distinguishing and predicting filling behavior of powders.
sBFE: Specific Basic Flow Energy (mJ/g): obtained from BFE (obtained from standard FT4 test platform) divided by the split mass of the sample.
SI: Stability Index, standard variable, dimensionless.
SE: Specific Energy (mJ/g), standard variable
MPS @ 15 kPa: major Principal Stress, standard variable
FF @ 15 kPa: Flow function (dimensionless), from shear cell, standard variable
CBD @ 15 kPa: Consolidated Bulk Density (g/mL), standard variable (from shear cell)
CPS: Compressibility (%), standard variable
WFA: Wall Friction Angle (degree°), standard variable.

Series [2] in a line: Particle size distribution by laser light diffraction (LLD). It counts as physicochemical. To be noted: laser light diffraction, pin-milled HDM201-BBA batches. From the text:
Values are given in micrometer, measurements done by laser light diffraction (LLD).

As to `CN(C)C(=O)c1cc2cnc(Nc3ccc(N4CCNCC4)cn3)nc2n1C1CCCC1` [1. LEE011, reference compound], in series [1], the “sBFE (Specific Basic Flow Energy)” value was found to be 38 mJ/g, the “SI (Stability Index)” value is on record as 0.9, the MPS-15 (major Principal Stress @ 15 kPa) was determined as 42 kPa and the “FF-15 (Flow function @ 15 kPa)” value worked out at 5.8. Moreover, in series [1], the “CBD-15 (Consolidated Bulk Density @ 15 kPa)” value is 0.6 g/mL, the “CPS (Compressibility)” value is given as 26% and the “WFA (Wall Friction Angle)” value was 40 °.

Turning to `OC[C@H]1O[C@@H](O[C@H]2[C@H](O)[C@@H](O)[C@@H](O)O[C@@H]2CO)[C@H](O)[C@@H](O)[C@H]1O` [4. Lactose 125M, reference compound], in series [1], the “sBFE (Specific Basic Flow Energy)” value was determined as 16 mJ/g, the “CPS (Compressibility)” value is given as 13% and the “WFA (Wall Friction Angle)” value came to 27 °.

With `CC1(N)CCN(c2cccnc2NC(=O)c2nc(-c3ncccc3C(F)(F)F)cnc2N)CC1` [5. LXS196, reference compound], in series [1], the “sBFE (Specific Basic Flow Energy)” value came out at 26 mJ/g, the “SI (Stability Index)” value is 1.1, the MPS-15 (major Principal Stress @ 15 kPa) turned out to be 27 kPa and the “FF-15 (Flow function @ 15 kPa)” value is listed as 15. Moreover, in series [1], the “CBD-15 (Consolidated Bulk Density @ 15 kPa)” value was found to be 0.7 g/mL, the “CPS (Compressibility)” value was found to be 11% and the “WFA (Wall Friction Angle)” value stood at 29 °.

As for `CCC(=O)N1CC[C@H](Nc2ncnc3c2CN(c2cnc(OC)c(C(F)(F)F)c2)CC3)C1` [6. CDZ173, reference compound], in series [1], the “sBFE (Specific Basic Flow Energy)” value was found to be 29 mJ/g, the “SI (Stability Index)” value is given as 1.5, the MPS-15 (major Principal Stress @ 15 kPa) worked out at 50 kPa and the “FF-15 (Flow function @ 15 kPa)” value is 1.4. In series [1], the “CBD-15 (Consolidated Bulk Density @ 15 kPa)” value worked out at 0.26 g/mL, the “CPS (Compressibility)” value is recorded as 43% and the “WFA (Wall Friction Angle)” value turned out to be 50 °.

Turning to `CCC(=O)N1CC[C@H](Nc2ncnc3c2CN(c2cnc(OC)c(C(F)(F)F)c2)CC3)C1` [7. CDZ173, reference compound], in series [1], the “sBFE (Specific Basic Flow Energy)” value was determined as 82 mJ/g, the “SI (Stability Index)” value was determined as 1.1, the MPS-15 (major Principal Stress @ 15 kPa) is 9.6 kPa and the “FF-15 (Flow function @ 15 kPa)” value turned out to be 5. Moreover, in series [1], the “CBD-15 (Consolidated Bulk Density @ 15 kPa)” value turned out to be 0.2 g/mL, the “CPS (Compressibility)” value is reported as 56% and the “WFA (Wall Friction Angle)” value came to 37 °.

As for `COc1ncc(-c2nc3c(n2C(C)C)[C@H](c2ccc(Cl)cc2)N(c2cc(Cl)cn(C)c2=O)C3=O)c(OC)n1.O=C(O)CCC(=O)O` [Batch A1], in series [2] (listed as A1), the X10 stood at 1 micrometer, the X50 stood at 5 micrometer and the X90 amounted to 14 micrometer. In series [1] (listed as A1), this compound returned an SI of 1.07, a sBFE of 6 mJ/g, a CBD-15 of 0.53 g/mL and an FF-15 of 2.5. In addition, in series [1] (listed as A1), the MPS-15 was found to be 32, the CPS was 43% and the WFA was found to be 35 °.

In the case of `COc1ncc(-c2nc3c(n2C(C)C)[C@H](c2ccc(Cl)cc2)N(c2cc(Cl)cn(C)c2=O)C3=O)c(OC)n1.O=C(O)CCC(=O)O` [Batch A2], in series [2] (listed as A2), the X10 is on record as 4 micrometer, the X50 is on record as 28 micrometer and the X90 stood at 60 micrometer. In series [1] (listed as A2), this compound had an SI of 1.11, a sBFE of 9 mJ/g, a CBD-15 of 0.68 g/mL and an FF-15 of 5.5. In series [1] (listed as A2), this compound showed an MPS-15 of 29, a CPS of 32% and a WFA of 34 °.

In series [2] (listed as A3), `COc1ncc(-c2nc3c(n2C(C)C)[C@H](c2ccc(Cl)cc2)N(c2cc(Cl)cn(C)c2=O)C3=O)c(OC)n1.O=C(O)CCC(=O)O` [Batch A3] showed an X10 of 9 micrometer, an X50 of 45 micrometer and an X90 of 95 micrometer. For the same compound, in series [1] (listed as A3), the SI was found to be 1.12, the sBFE is 20 mJ/g, the CBD-15 is 0.69 g/mL and the FF-15 is 9.4. In series [1] (listed as A3), this compound showed an MPS-15 of 29, a CPS of 15% and a WFA of 34 °.

In series [2] (listed as B1), `COc1ncc(-c2nc3c(n2C(C)C)[C@H](c2ccc(Cl)cc2)N(c2cc(Cl)cn(C)c2=O)C3=O)c(OC)n1.O=C(O)CCC(=O)O` [Batch B1] yielded an X10 of 3 micrometer, an X50 of 16 micrometer and an X90 of 50 micrometer. Also, in series [1] (listed as B1), the SI is 1.14, the sBFE was 6 mJ/g, the CBD-15 is on record as 0.64 g/mL and the FF-15 is recorded as 3.8. In series [1] (listed as B1), this compound registered an MPS-15 of 29, a CPS of 31% and a WFA of 34 °.

For `COc1ncc(-c2nc3c(n2C(C)C)[C@H](c2ccc(Cl)cc2)N(c2cc(Cl)cn(C)c2=O)C3=O)c(OC)n1.O=C(O)CCC(=O)O` [Batch B2], in series [2] (listed as B2), the X10 is 4 micrometer, the X50 stood at 21 micrometer and the X90 came out at 71 micrometer. In addition, in series [1] (listed as B2), the SI came out at 1.01, the sBFE is on record as 8 mJ/g, the CBD-15 was determined as 0.65 g/mL and the FF-15 came out at 3.8. Further, in series [1] (listed as B2), the MPS-15 was determined as 28, the CPS turned out to be 38% and the WFA is 35 °.

In series [2] (listed as B3), `COc1ncc(-c2nc3c(n2C(C)C)[C@H](c2ccc(Cl)cc2)N(c2cc(Cl)cn(C)c2=O)C3=O)c(OC)n1.O=C(O)CCC(=O)O` [Batch B3] registered an X10 of 5 micrometer, an X50 of 26 micrometer and an X90 of 87 micrometer. In series [1] (listed as B3), this compound displayed an SI of 1.11, a sBFE of 9 mJ/g, a CBD-15 of 0.70 g/mL and an FF-15 of 5.3. In series [1] (listed as B3), the MPS-15 was determined as 29, the CPS came out at 26% and the WFA worked out at 35 °.

In series [2] (listed as C1), `COc1ncc(-c2nc3c(n2C(C)C)[C@H](c2ccc(Cl)cc2)N(c2cc(Cl)cn(C)c2=O)C3=O)c(OC)n1.O=C(O)CCC(=O)O` [Batch C1] came in with an X10 of 21 micrometer, an X50 of 69 micrometer and an X90 of 163 micrometer. In series [1] (listed as C1), this compound registered an SI of 1.15, a sBFE of 33 mJ/g, a CBD-15 of 0.68 g/mL and an FF-15 of 9.0. Besides, in series [1] (listed as C1), the MPS-15 is given as 31, the CPS was 14% and the WFA was 34 °.

On to `COc1ncc(-c2nc3c(n2C(C)C)[C@H](c2ccc(Cl)cc2)N(c2cc(Cl)cn(C)c2=O)C3=O)c(OC)n1.O=C(O)CCC(=O)O` [Batch C2], for which, in series [2] (listed as C2), the X10 was determined as 6 micrometer, the X50 was 35 micrometer and the X90 was found to be 83 micrometer. In series [1] (listed as C2), this compound yielded an SI of 1.01, a sBFE of 12 mJ/g, a CBD-15 of 0.70 g/mL and an FF-15 of 6.4. In series [1] (listed as C2), this compound had an MPS-15 of 29, a CPS of 25% and a WFA of 35 °.

The record behind these values is patent US20220175682A1, “Siremadlin Succinate” (Novartis AG, priority 2019, published 2022).
